Each structure is given as a SMILES string.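 Growth conditions: 96-well plates. Treatment: test compound, 48 hours, 5 concentrations. Analysis: linear interpolation between bracketing concentrations; unreached endpoints set to highest concentration. GI50 is the concentration that inhibits growth by half.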 Active and inactive are the calls of the source. Rule as the data show it: active = GI50 up to about 1.1 µM and inactive = higher.

Among the test systems are SNB-19; RXF 393; UO-31; Malme-3M; HCC 2998; HOP-62; U-251; SK-OV-3; 786-0; HT-29; KM-20L2; COLO 205; RPMI-8226; OVCAR-5; M14; OVCAR-4; Hs-578T; BT-549; DU-145; MCF7.
Holding throughout (test): NCI-60 cell line screen, 48 h

For the molecule `Nc1nc(O)c2c(ncn2CCO)n1`, the GI50 in the experiment on SNB-19, in the experiment on RXF 393, in the experiment with UO-31, in the experiment with Malme-3M, with HCC 2998 and with HOP-62 was > 100 µM (inactive) each time. Besides, the GI50 in the experiment on U-251, in the experiment with SK-OV-3, with 786-0, in the experiment on HT-29, with KM-20L2 and in the experiment with COLO 205 was > 100 µM (inactive) throughout. The GI50 with RPMI-8226 and with OVCAR-5 was > 100 µM (inactive) in each case.
On to `CCc1nc2c(O)ccc(O)c2nc1C`, for which the GI50 with SNB-19 is 18.9 µM (inactive); in the experiment on M14, 15 µM (inactive); in the experiment with RXF 393 it was 11.5 µM (inactive); in the experiment on UO-31 it was 19.3 µM (inactive); with Malme-3M, 15.8 µM (inactive); in the experiment on HCC 2998, 24.6 µM (inactive). The GI50 was 18 µM (inactive) in the experiment with HOP-62; 6.75 µM (inactive) in the experiment with OVCAR-4; 16.5 µM (inactive) with U-251; 20 µM (inactive) in the experiment with SK-OV-3; 13.5 µM (inactive) in the experiment with 786-0; 17.2 µM (inactive) in the experiment on HT-29. Further, the GI50 in the experiment on KM-20L2 is 18.6 µM (inactive); with COLO 205, 2.53 µM (inactive); in the experiment on RPMI-8226, 3.8 µM (inactive); with OVCAR-5 it was 19.3 µM (inactive).
Turning to `O=C1C(Cl)C(c2cc(Br)ccc2O)N1n1cnc2ccccc2c1=O` (configuration not stated), the GI50 is 14.5 µM (inactive) in the experiment on SNB-19; 11.3 µM (inactive) in the experiment with M14; 28.9 µM (inactive) in the experiment with RXF 393; 7.4 µM (inactive) with UO-31; 20.5 µM (inactive) in the experiment on Malme-3M; 17.4 µM (inactive) in the experiment on HCC 2998. Moreover, the GI50 was 13.7 µM (inactive) in the experiment with HOP-62; 10.7 µM (inactive) in the experiment with OVCAR-4; 10.7 µM (inactive) with U-251; 20 µM (inactive) in the experiment on SK-OV-3; 17.3 µM (inactive) in the experiment on 786-0; 30.5 µM (inactive) in the experiment on HT-29. Also, the GI50 with KM-20L2 is 22.2 µM (inactive); with COLO 205, 27.7 µM (inactive); in the experiment on RPMI-8226 it was 5.4 µM (inactive); in the experiment on OVCAR-5, 28.5 µM (inactive).
`CC(C)(Br)C(=O)C(Br)Br`: the GI50 was 19.7 µM (inactive) in the experiment on SNB-19; 2.44 µM (inactive) with M14; 3.16 µM (inactive) in the experiment on RXF 393; 6.89 µM (inactive) in the experiment with Hs-578T; 17.5 µM (inactive) in the experiment with UO-31; 4.9 µM (inactive) with BT-549. The GI50 is 2.01 µM (inactive) with Malme-3M; 17.1 µM (inactive) in the experiment on HCC 2998; > 42.3 µM (inactive) in the experiment with HOP-62; 5.09 µM (inactive) in the experiment with OVCAR-4; > 28 µM (inactive) with U-251; 33.7 µM (inactive) in the experiment on DU-145. Also, the GI50 was 17.5 µM (inactive) in the experiment with SK-OV-3; 13.8 µM (inactive) with 786-0; 8.17 µM (inactive) in the experiment on HT-29; 6.38 µM (inactive) in the experiment on MCF7; 18 µM (inactive) in the experiment with KM-20L2; 2.74 µM (inactive) in the experiment with COLO 205. Further, the GI50 in the experiment on OVCAR-5 was 16.8 µM (inactive).
Take `Fc1ccc(C2SCc3nc4ccccc4n32)c(F)c1` (configuration not stated): the GI50 in the experiment on SNB-19 was > 100 µM (inactive); with M14 it was 73.1 µM (inactive); in the experiment with RXF 393 it was 98.4 µM (inactive); with UO-31 it was 42.3 µM (inactive); in the experiment on Malme-3M, 80.4 µM (inactive); with HCC 2998, 98.6 µM (inactive). Besides, the GI50 is > 100 µM (inactive) in the experiment with HOP-62; 95.7 µM (inactive) in the experiment with OVCAR-4; 75.5 µM (inactive) in the experiment with U-251; > 100 µM (inactive) in the experiment with SK-OV-3; > 100 µM (inactive) in the experiment on 786-0; 81.1 µM (inactive) in the experiment on HT-29. Besides, the GI50 is > 100 µM (inactive) with KM-20L2, > 100 µM (inactive) in the experiment on COLO 205, 37.9 µM (inactive) in the experiment on RPMI-8226 and 67.6 µM (inactive) in the experiment on OVCAR-5.
As to `CC(C)(C)c1cc2c3c(c1)C(C(F)(F)F)(C(F)(F)F)O[Te]3(C)OC2(C(F)(F)F)C(F)(F)F`, the GI50 with SNB-19, in the experiment on M14, with RXF 393, in the experiment on UO-31, with Malme-3M and in the experiment with HCC 2998 was > 100 µM (inactive) each time. Also, the GI50 with HOP-62, in the experiment with OVCAR-4, in the experiment on U-251, with SK-OV-3, with 786-0 and in the experiment on HT-29 was > 100 µM (inactive) each time. Besides, the GI50 in the experiment on KM-20L2, with COLO 205, with RPMI-8226 and in the experiment with OVCAR-5 was > 100 µM (inactive) throughout.
Regarding `CCOC(=O)C(=O)NNc1nc2c(s1)C(=O)c1ccccc1C2=O`, the GI50 with SNB-19 is 15.1 µM (inactive); in the experiment on M14, 2.08 µM (inactive); in the experiment on RXF 393, 4.78 µM (inactive); in the experiment with Hs-578T it was 2.87 µM (inactive); in the experiment on UO-31, 2.29 µM (inactive); in the experiment with BT-549, 10.9 µM (inactive). For the same molecule, the GI50 is 1.95 µM (inactive) in the experiment on Malme-3M; 14.9 µM (inactive) in the experiment with HCC 2998; 10.8 µM (inactive) in the experiment with HOP-62; 1.85 µM (inactive) with OVCAR-4; 7.06 µM (inactive) in the experiment on U-251; 17.7 µM (inactive) in the experiment on DU-145. Moreover, the GI50 with SK-OV-3 was 20 µM (inactive); with 786-0, 10.6 µM (inactive); with HT-29, 19.1 µM (inactive); in the experiment with MCF7, 15.6 µM (inactive); in the experiment with KM-20L2, 18.1 µM (inactive); with COLO 205 it was 12.4 µM (inactive). Further, the GI50 in the experiment on RPMI-8226 is 2.65 µM (inactive); in the experiment on OVCAR-5 it was 9.35 µM (inactive).
For the molecule `CC(C(=O)c1ccc(O)cc1)C1(O)C(=O)Nc2c(Cl)cc(Cl)cc21` (configuration not stated), the GI50 in the experiment with SNB-19 is > 77.6 µM (inactive); with M14, 26.7 µM (inactive); in the experiment with RXF 393, 24.6 µM (inactive); in the experiment with UO-31, > 56.6 µM (inactive); in the experiment on Malme-3M, > 100 µM (inactive); in the experiment with HCC 2998, > 100 µM (inactive). Besides, the GI50 in the experiment on HOP-62 is > 100 µM (inactive); in the experiment on OVCAR-4 it was 21.7 µM (inactive); in the experiment with U-251, > 78 µM (inactive); with SK-OV-3, > 100 µM (inactive); with 786-0, 48.1 µM (inactive); in the experiment with HT-29, > 73.8 µM (inactive). For the same molecule, the GI50 is > 92.5 µM (inactive) with KM-20L2, > 100 µM (inactive) with COLO 205, 25.6 µM (inactive) in the experiment on RPMI-8226 and > 100 µM (inactive) with OVCAR-5.
Take `COC(=O)C(=C\Sc1ccccc1)/C=C/C(=O)OC(C)(C)C`: the GI50 is 4.08 µM (inactive) in the experiment on SNB-19; 7.78 µM (inactive) in the experiment with M14; 2.69 µM (inactive) in the experiment on RXF 393; 16 µM (inactive) with UO-31; 15.9 µM (inactive) in the experiment with Malme-3M; 10.1 µM (inactive) with HCC 2998. Further, the GI50 is 19.5 µM (inactive) in the experiment on HOP-62; 15 µM (inactive) in the experiment on OVCAR-4; 14.5 µM (inactive) in the experiment on U-251; 24 µM (inactive) in the experiment with SK-OV-3; 5.27 µM (inactive) in the experiment on 786-0; 16.5 µM (inactive) in the experiment on HT-29. Moreover, the GI50 was 17.1 µM (inactive) in the experiment on KM-20L2, 5.3 µM (inactive) in the experiment on COLO 205, 3.06 µM (inactive) in the experiment with RPMI-8226 and 15.4 µM (inactive) with OVCAR-5.
Turning to `CCOC(=O)C=C1CCC2(CC1)OCCO2`, the GI50 in the experiment on SNB-19, in the experiment with M14, in the experiment on RXF 393, in the experiment with UO-31, in the experiment with Malme-3M and in the experiment with HCC 2998 was > 100 µM (inactive) throughout. Also, the GI50 in the experiment on OVCAR-4, with U-251, with DU-145, in the experiment on SK-OV-3, in the experiment on 786-0 and in the experiment on HT-29 was > 100 µM (inactive) throughout. Moreover, the GI50 in the experiment on KM-20L2, with COLO 205, in the experiment on RPMI-8226 and in the experiment with OVCAR-5 was > 100 µM (inactive) in each case.
Turning to `C#CCOCn1cnc2c(Sc3c([N+](=O)[O-])ncn3C)ncnc21`, the GI50 in the experiment with SNB-19 was > 100 µM (inactive); with M14, > 100 µM (inactive); in the experiment with RXF 393 it was > 100 µM (inactive); in the experiment on UO-31, 91.8 µM (inactive); in the experiment with Malme-3M, > 100 µM (inactive); with HCC 2998, > 100 µM (inactive). The GI50 was > 100 µM (inactive) in the experiment with HOP-62; 87.5 µM (inactive) with OVCAR-4; > 100 µM (inactive) in the experiment with U-251; > 100 µM (inactive) with SK-OV-3; > 100 µM (inactive) in the experiment with 786-0; > 100 µM (inactive) in the experiment with HT-29. The GI50 with KM-20L2, in the experiment with COLO 205, in the experiment with RPMI-8226 and in the experiment on OVCAR-5 was > 100 µM (inactive) each time.
As for `CC12OC3CC(O1)C1(C=O)C4CCC5(C)C(c6ccc(=O)oc6)CCC5(O)C4CCC1(C3)O2` (configuration not stated), the GI50 in the experiment with SNB-19 was 0.573 µM (active); in the experiment on M14 it was 0.242 µM (active); with RXF 393, 0.104 µM (active); in the experiment on UO-31 it was 0.304 µM (active); in the experiment on Malme-3M, 0.198 µM (active); with HCC 2998, 0.56 µM (active). The GI50 with HOP-62 is 0.146 µM (active); in the experiment with OVCAR-4, 0.155 µM (active); in the experiment on U-251, 0.293 µM (active); with SK-OV-3, 0.213 µM (active); in the experiment with 786-0, 0.122 µM (active); in the experiment with HT-29 it was 0.385 µM (active). For the same molecule, the GI50 in the experiment with KM-20L2 is 0.298 µM (active); in the experiment on COLO 205, 0.483 µM (active); in the experiment with RPMI-8226, 0.0313 µM (active); with OVCAR-5, 0.383 µM (active).

(Values after ChEMBL document CHEMBL1201862, “PubChem BioAssay data set” (2004).)
